Test results reported in BindingDB's records for doi:10.1021/jm051187d (Unimore, 2006).

Target: Thymidylate synthase (Escherichia coli (strain K12), UniProt P0A884)
Assay: Thymidylate Synthase (TS) Assay
Description: TS was assayed spectrophotometrically in the reaction buffer solution containing (6R, 6S)-5, 10-CH2H4folate. The reaction was initiated by the addition of an amount of enzyme yielding a change in absorbance at 340 nm of 0.016/min in the absence of inhibitor. Ki values were obtained from the linear least-squares fit of the residual activity as a function of inhibitor concentration, using suitable equations for competitive inhibition.

Thymidylate synthase, sequence (P0A884 whole entry): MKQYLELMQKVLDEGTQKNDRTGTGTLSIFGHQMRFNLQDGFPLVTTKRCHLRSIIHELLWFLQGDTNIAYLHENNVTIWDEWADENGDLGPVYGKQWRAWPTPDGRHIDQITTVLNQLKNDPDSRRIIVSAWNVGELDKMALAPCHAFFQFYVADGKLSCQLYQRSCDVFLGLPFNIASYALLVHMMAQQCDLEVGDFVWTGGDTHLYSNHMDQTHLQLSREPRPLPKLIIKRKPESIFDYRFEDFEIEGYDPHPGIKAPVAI

Ki: > 11 mM
Structure (SMILES): O=C1OC(c2cc(Br)c(O)c(Br)c2)(c2cc(Br)c(O)c(Br)c2)c2cccc3cccc1c23 [4,4-bis(3,5-dibromo-4-hydroxyphenyl)-3-oxatricyclo[7.3.1.0^{5,13}]trideca-1(12),5,7,9(13),10-pentaen-2-one]
